Data published in patent publication US20180296523A1, “USE OF POLYMETHOXYLATED FLAVONES TO AMELIORATE CIRCADIAN RHYTHM DISORDERS” (THE BOARD OF REGENTS OF THE UNIVERSITY OF TEXAS SY, priority 2017, published 2018).
“Also recorded” adds a separate entry of the source.

Key:
[1] = test system: SCN explants from PER2::Luc WT reporter mice; assay: PER2::Luc reporter rhythms in SCN explants; format: cell-based, mouse; conditions: listed as NOB
Protocol: The chemical screen for circadian clock modulators was conducted at the Chemical Genomics Core facility at the UTHSC-H. The in-house chemical library screened consists of compounds from NIH Clinical Collection, NCI collection and Microsource Spectrum Collection. The screening was conducted largely based on the protocol previously described (Chen et al., 2012). Briefly, 15,000 immortalized fibroblast cells from Clock^Δ19/+ heterozygous mice expressing the PER2::Luc bioluminescence reporter were plated into each well of 96-well plates, and incubated for 3-4 d to allow growth to confluency. Cells were then incubated with 5 μM forskolin for 1-2 h followed by the addition of chemical compounds to the plates with robotic arms (Beckman), and then subjected to continuous monitoring over several days in a temperature-controlled EnVision microplate reader (Perkin Elmer). Data analysis was carried out by using the MultiCycle software (Actimetrics) for measurement of period, phase, and amplitude. […] NOB and a structurally related analog Naringin (NAR) were re-ordered from commercial sources including Sigma and GenDEPOT and dose response validation was conducted using PER2::LucSV reporter fibroblast cells which express stronger bioluminescence signals and thus allow precise measurements of circadian clock effects of compounds (Chen et al., 2012). […]

RORγt = target: T1, RORγt (Homo sapiens, UniProt P51449); conditions: Huh et al., 2011; cited from earlier work
T1 sequence (P51449 1-497 isoform P51449-2): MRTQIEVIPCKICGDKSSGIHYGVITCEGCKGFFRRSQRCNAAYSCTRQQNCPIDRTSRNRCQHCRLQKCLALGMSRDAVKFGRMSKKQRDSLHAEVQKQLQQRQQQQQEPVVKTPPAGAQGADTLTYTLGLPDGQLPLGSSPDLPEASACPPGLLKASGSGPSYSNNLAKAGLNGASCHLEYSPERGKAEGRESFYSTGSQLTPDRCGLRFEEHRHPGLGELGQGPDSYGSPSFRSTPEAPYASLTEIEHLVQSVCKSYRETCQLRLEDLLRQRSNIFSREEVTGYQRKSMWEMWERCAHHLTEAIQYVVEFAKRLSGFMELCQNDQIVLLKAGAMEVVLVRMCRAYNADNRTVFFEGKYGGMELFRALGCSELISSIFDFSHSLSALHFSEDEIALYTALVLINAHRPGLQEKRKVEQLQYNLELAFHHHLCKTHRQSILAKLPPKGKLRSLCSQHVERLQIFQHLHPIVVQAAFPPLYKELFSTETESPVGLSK

[2] = test system: WT and Clock^Δ19/Δ19 mice; assay: Circadian locomotor (wheel-running) activity; format: in vivo, mouse
Source text: RC-fed WT, HFD-fed WT and Clock^[…]/[…] mice with NOB or Vehicle treatment were used for circadian locomotor activity experiments. Briefly, mice were first maintained for at least 2 weeks in a 12 hr:12 hr light:dark (LD) cycle, then released into the constant darkness, free-running condition. The mice were then maintained in constant darkness for another 2 weeks. Wheel-running data was downloaded as VitalView data files and analyzed with the […] and Actogram J program (Schmid et al., 2011; Zheng et al., 1999).

[3] = test system: PER2::Luc Clock^Δ19/Δ19 fibroblast cells; assay: Reporter rhythm in homozygous Clock^Δ19/Δ19 reporter cells; format: cell-based, mouse; conditions: clock-disrupted homozygous Clock^Δ19/Δ19 cells
[4] = test system: db/db and db/db Clock^Δ19/Δ19 mice; assay: db/db diabetic mice and db/db Clock^Δ19/Δ19 double-mutant mice; format: in vivo, mouse
Protocol: Weekly body weight was monitored in different treatment mice for 10 weeks. Body mass composition was measured at the end of experiments using a minispec mqNMR spectrometer (Bruker Optics, Texas) (Garcia et al., 2013). A control group of mice were fed with regular chow diet (Purina 5001) in parallel with the two treatment groups in HFD. For db/db and db/db Clock^Δ19/Δ19 mice, male mice at 6-8 weeks of age were group-housed (2-3/cage) and maintained on regular chow diets. Mice were subjected to oral gavage with either DMSO or NOB as described above.
Serum samples were obtained at ZT2 from treated mice as previously described (Jeong et al., 2015). Hepatic triglyceride and cholesterol were extracted as previously described (Liu et al., 2012). The triglyceride and cholesterol levels in liver and serum were assessed by Serum Triglyceride Determination Kit (Sigma) and Cholesterol Assay Kit (Cayman), respectively. The assay plates were read by a TECAN M200 instrument (Tecan) following the manufacturer's instructions.
Glucose tolerance test (GTT) and insulin tolerance test (ITT) were performed largely as described (He et al., 2015; Jeong et al., 2015). Briefly, after overnight and 5-hr fasting, GTT and ITT were conducted at ZT2 and ZT8 respectively. Glucose levels were measured from tail blood before and 15, 30, 60, or 120 min after injection of either 1 g/kg glucose or 0.75 U/kg insulin (Sigma) at ZT2 and ZT8 respectively by using the ONETOUCH UltraMini blood glucose monitoring system (LifeScan). Serum insulin levels were measured with the Rat/Mouse Insulin Elisa kit (Millipore) according to the manufacturer's instructions. The plasma samples were collected at ZT2 as described above for lipid assays.

[5] = test system: peripheral tissue explants from PER2::Luc reporter mice; assay: PER2::Luc reporter rhythms in peripheral tissue explants; format: cell-based, mouse
Protocol: The chemical screen for circadian clock modulators was conducted at the Chemical Genomics Core facility at the UTHSC-H. The in-house chemical library screened consists of compounds from NIH Clinical Collection, NCI collection and Microsource Spectrum Collection. The screening was conducted largely based on the protocol previously described (Chen et al., 2012). Briefly, 15,000 immortalized fibroblast cells from Clock^Δ19/+ heterozygous mice expressing the PER2::Luc bioluminescence reporter were plated into each well of 96-well plates, and incubated for 3-4 d to allow growth to confluency. Cells were then incubated with 5 μM forskolin for 1-2 h followed by the addition of chemical compounds to the plates with robotic arms (Beckman), and then subjected to continuous monitoring over several days in a temperature-controlled EnVision microplate reader (Perkin Elmer). Data analysis was carried out by using the MultiCycle software (Actimetrics) for measurement of period, phase, and amplitude. […] NOB and a structurally related analog Naringin (NAR) were re-ordered from commercial sources including Sigma and GenDEPOT and dose response validation was conducted using PER2::LucSV reporter fibroblast cells which express stronger bioluminescence signals and thus allow precise measurements of circadian clock effects of compounds (Chen et al., 2012). Tissue explant experiments were conducted as described previously (Chen et al., 2012).

COc1ccc(-c2cc(=O)c3c(OC)c(OC)c(OC)c(OC)c3o2)cc1OC [nobiletin]
reporter rhythms in SCN explants [1]: did not enhance reporter rhythms | effect on RORγt in primary screen (RORγt): activated RORγt | wheel-running activity levels ([2]; HFD-fed Clock^Δ19/Δ19 mice): no significant difference in activity levels | wheel-running activity levels ([2]; HFD-fed WT mice, vs control treatment): greatly increased wheel-running activity levels | wheel-running activity and periodicity ([2]; RC-fed WT C57/6J mice): normal wheel-running activity and periodicity | restoring reporter rhythm [3]: ineffective in restoring the rhythm; also recorded: not able to rescue reporter rhythms | overall metabolic response to treatment ([4]; db/db Clock^Δ19/Δ19 double-mutant mice, in contrast to db/db): markedly attenuated response | circulating insulin levels ([4]; db/db Clock^Δ19/Δ19 mutant mice): strongly reduced circulating insulin levels | circulating insulin levels ([4]; db/db mice): strongly reduced circulating insulin levels | fasting glucose levels ([4]; db/db mice): lowered fasting glucose levels | glucose tolerance (GTT) ([4]; db/db mice): improved | insulin sensitivity (ITT) ([4]; db/db mice): improved | serum total cholesterol (TC) ([4]; db/db mice): reduced | serum total triglyceride (TG) ([4]; db/db mice): reduced | body weight gain ([4]; db/db mice, RC, 10 weeks): strongly blunted body weight gain | reporter rhythm in pituitary explants ([5]; PER2::Luc Clock^Δ19/+ reporter mice): Clock-enhancing effects | reporter rhythm in liver explant ([5]; PER2::Luc WT reporter mice): Clock-enhancing effects | reporter rhythm in lung explant ([5]; PER2::Luc WT reporter mice): Clock-enhancing effects | reporter rhythm in pituitary explants ([5]; PER2::Luc WT reporter mice): Clock-enhancing effects | PER2::Luc reporter rhythms in peripheral tissue explants ([5]; from both Clock^Δ19/+ and WT reporter knockin mice): enhanced PER2::Luc reporter rhythms
